The record followed here is patent publication US20040142952A1, “Triazoloquinazoline and pyrazolotriazolopyrimidine derivatives, medicinal compositions, adenosine a3 receptor affinity agents, ocular tension lowering agents, preparations for preventing and treating glaucoma and method of lowering ocular tension” (priority 2001, published 2004).

Where only a bound is given, the exact number is not on record here.

One may read the melting point as the temperature of the solid-liquid transition.

`CCCCc1nc2nncc-2c2nc(-c3ccc(O)cc3)[nH]n12` [Example 12, 5-n-butyl-2-(4-hydroxyphenyl)pyrazolo[4,3-e]-1,2,4-triazolo[1,5-c]pyrimidine]: the melting point is above 280 °C.

The compound `CCCCc1nc2nncc-2c2nc(-c3ccc(OCCC)cc3)[nH]n12` [Example 14, 5-n-butyl-2-(4-propoxyphenyl)pyrazolo[4,3-e]-1,2,4-triazolo[1,5-c]pyrimidine] had a melting point of 191 to 192 °C.

Take `CCCCc1nc2nncc-2c2nc(-c3cc(OC)c(OC)c(OC)c3)[nH]n12` [Example 15, 5-n-butyl-2-(3,4,5-trimethoxyphenyl)pyrazolo[4,3-e]-1,2,4-triazolo[1,5-c]pyrimidine]: the melting point lay in the range of 259 to 262 °C. With `CCCCc1nc2nncc-2c2nc(-c3ccc([N+](=O)[O-])cc3)[nH]n12` [Example 17, 5-n-butyl-2-(4-nitrophenyl)pyrazolo[4,3-e]-1,2,4-triazolo[1,5-c]pyrimidine] the figure was 279 to 280.5 °C.

As for `CCCCc1nc2nncc-2c2nc(-c3cccnc3)[nH]n12` [Example 18, 5-n-butyl-2-(3-pyridyl)pyrazolo[4,3-e]-1,2,4-triazolo[1,5-c]pyrimidine], the melting point is 217 to 219 °C. Compound `CCCCc1nc2nncc-2c2nc(-c3ccco3)[nH]n12` [Example 19, 5-n-butyl-2-(2-furyl)pyrazolo[4,3-e]-1,2,4-triazolo[1,5-c]pyrimidine] registered a melting point of 253 to 254.5 °C. With `CCCCc1nc2nncc-2c2nc(-c3cccs3)[nH]n12` [Example 20, 5-n-butyl-2-(2-thienyl)pyrazolo[4,3-e]-1,2,4-triazolo[1,5-c]pyrimidine] the figure was 214 to 216 °C; with `CCCc1nc2ccccc2c2nc(-c3ccccc3)nn12` [Example 21, 2-phenyl-5-propyl-1,2,4-triazolo[1,5-c]quinazoline], 143 to 144 °C; with `CCCCc1nc2ccccc2c2nc(-c3ccccc3Cl)nn12` [Example 24, 5-n-butyl-2-(2-chlorophenyl)-1,2,4-triazolo[1,5-c]quinazoline], 104.5 to 105.55 °C. As to `CCCCc1nc2ccccc2c2nc(-c3cccc(Cl)c3)nn12` [Example 25, 5-n-butyl-2-(3-chlorophenyl)-1,2,4-triazolo[1,5-c]quinazoline], the melting point lay in the range of 129 to 131 °C. With `CCCCc1nc2ccccc2c2nc(-c3ccc(C(C)(C)C)cc3)nn12` [Example 29, 5-n-butyl-2-(4-t-butylphenyl)-1,2,4-triazolo[1,5-c]quinazoline] the figure was 106 to 108 °C; with `CCCCc1nc2ccccc2c2nc(-c3ccccc3OC)nn12` [Example 33, 5-n-butyl-2-(2-methoxyphenyl)-1,2,4-triazolo[1,5-c]quinazoline], 106.5 to 107.5 °C; with `CCCCc1nc2ccccc2c2nc(-c3ccc(OCCC)cc3)nn12` [Example 36, 5-n-butyl-2-(4-propoxyphenyl)-1,2,4-triazolo[1,5-c]quinazoline], 128 to 129 °C. For the compound `CCCCc1nc2ccccc2c2nc(-c3cc(OC)c(OC)c(OC)c3)nn12` [Example 37, 5-n-butyl-2-(3,4,5-trimethoxyphenyl)-1,2,4-triazolo[1,5-c]quinazoline], the melting point is 130 to 133 °C. The same measure for `CCCCc1nc2ccccc2c2nc(-c3ccc(N(C)C)cc3)nn12` [Example 38, 5-n-butyl-2-[4-(N,N-dimethylamino)phenyl]-1,2,4-triazolo[1,5-c]quinazoline]: 148.5 to 150 °C; for `CCCCc1nc2ccccc2c2nc(-c3ccc([N+](=O)[O-])cc3)nn12` [Example 39, 5-n-butyl-2-(4-nitrophenyl)-1,2,4-triazolo[1,5-c]quinazoline]: 194 to 195 °C.

For the compound `CCCCc1nc2ccccc2c2nc(-c3cccnc3)nn12` [Example 40, 5-n-butyl-2-(3-pyridyl)-1,2,4-triazolo[1,5-c]quinazoline], the melting point is 140 to 141.5 °C. The same measure for `CCCCc1nc2ccccc2c2nc(-c3cccs3)nn12` [Example 42, 5-n-butyl-2-(2-thienyl)-1,2,4-triazolo[1,5-c]quinazoline]: 147 to 149.5 °C; for `CCCCc1nc2cccc(F)c2c2nc(-c3ccccc3)nn12` [Example 43, 5-n-butyl-10-fluoro-2-phenyl-1,2,4-triazolo[1,5-c]quinazoline]: 123 to 124 °C. The same measure for `CCCCc1nc2ccc(Br)cc2c2nc(-c3ccccc3)nn12` [Example 47, 9-bromo-5-n-butyl-2-phenyl-1,2,4-triazolo[1,5-c]quinazoline]: 129.5 to 132.5 °C. The same measure for `CCCCc1nc2cc(OC)c(OC)cc2c2nc(-c3ccccc3)nn12` [Example 48, 5-n-butyl-8,9-dimethoxy-2-phenyl-1,2,4-triazolo[1,5-c]quinazoline]: 150 to 152 °C. In turn, `CCCCc1nc2cccc(C)c2c2nc(-c3ccccc3)nn12` [Example 49, 5-n-butyl-10-methyl-2-phenyl-1,2,4-triazolo[1,5-c]quinazoline] yielded a melting point of 123 to 124 °C. `CCCCc1nc2nncc-2c2nc(-c3ccccc3OC)[nH]n12` [Example 53, 5-n-butyl-2-(2-methoxyphenyl)pyrazolo[4,3-e]-1,2,4-triazolo[1,5-c]pyrimidine]: the melting point fell in the range of 157 to 160 °C. The same measure for `CCCCc1nc2nncc-2c2nc(-c3ccc(SC)cc3)[nH]n12` [Example 56, 5-n-butyl-2-(4-methylthiophenyl)pyrazolo[4,3-e]-1,2,4-triazolo[1,5-c]pyrimidine]: 204 to 205 °C; for `CCCCc1nc2ccccc2c2nc(-c3cccc(OC)c3)nn12` [Example 57, 5-n-butyl-2-(3-methoxyphenyl)-1,2,4-triazolo[1,5-c]quinazoline]: 118 to 119 °C. The same measure for `CCCCc1nc2ccccc2c2nc(-c3ccc(SC)cc3)nn12` [Example 58, 5-n-butyl-2-(4-methylthiophenyl)-1,2,4-triazolo[1,5-c]quinazoline]: 140.5 to 141.5 °C; for `c1ccc(-c2nc3c4cnnc-4nc(-c4ccccc4)n3[nH]2)cc1` [Example 59, 2,5-diphenylpyrazolo[4,3-e]-1,2,4-triazolo[1,5-c]pyrimidine]: 272.5 to 275 °C. `CCCc1nc2nncc-2c2nc(-c3ccc(C)cc3)[nH]n12` [Example 60, 2-(4-methylphenyl)-5-n-propylpyrazolo[4,3-e]-1,2,4-triazolo[1,5-c]pyrimidine] displayed a melting point of 274 to 275 °C. With `CCc1nc2nncc-2c2nc(-c3ccc(OC)cc3)[nH]n12` [Example 63, 5-ethyl-2-(4-methoxyphenyl)pyrazolo[4,3-e]-1,2,4-triazolo[1,5-c]pyrimidine] the figure was 274 to 277 °C. The same measure for `CCc1nc2nncc-2c2nc(-c3ccc(Cl)cc3)[nH]n12` [Example 64, 2-(4-chlorophenyl)-5-ethylpyrazolo[4,3-e]-1,2,4-triazolo[1,5-c]pyrimidine]: above 280 °C; for `CCc1nc2nncc-2c2nc(-c3ccc(C)cc3)[nH]n12` [Example 65, 5-ethyl-2-(4-methylphenyl)pyrazolo[4,3-e]-1,2,4-triazolo[1,5-c]pyrimidine]: above 280 °C. `CCc1nc2ccccc2c2nc(-c3ccc(Br)cc3)nn12` [Example 66, 2-(4-bromophenyl)-5-ethyl-1,2,4-triazolo[1,5-c]quinazoline] yielded a melting point of 197 to 198 °C.

For `CCc1nc2ccccc2c2nc(-c3ccc(F)cc3)nn12` [Example 67, 5-ethyl-2-(4-fluorophenyl)-1,2,4-triazolo[1,5-c]quinazoline], the melting point lay within 195 to 196 °C. As to `CCc1nc2ccccc2c2nc(-c3ccc(Cl)cc3)nn12` [Example 68, 2-(4-chlorophenyl)-5-ethyl-1,2,4-triazolo[1,5-c]quinazoline], the melting point lay within 197 to 198 °C.

`CCc1nc2ccccc2c2nc(-c3ccc(C)cc3)nn12` [Example 69, 5-ethyl-2-(4-methylphenyl)-1,2,4-triazolo[1,5-c]quinazoline] displayed a melting point of 147 to 148 °C. `CCc1nc2ccccc2c2nc(-c3ccc(OC)cc3)nn12` [Example 71, 5-ethyl-2-(4-methoxyphenyl)-1,2,4-triazolo[1,5-c]quinazoline] showed a melting point of 167.5 to 168 °C. Consider `CCOc1ccc(-c2nc3c4ccccc4nc(CC)n3n2)cc1` [Example 72, 2-(4-ethoxyphenyl)-5-ethyl-1,2,4-triazolo[1,5-c]quinazoline], for which the melting point was in the range of 153 to 154 °C. With `CCCc1nc2ccc(Cl)cc2c2nc(-c3ccccc3)nn12` [Example 73, 9-chloro-2-phenyl-5-n-propyl-1,2,4-triazolo[1,5-c]quinazoline] the figure was 140.5 to 141.5 °C. The same measure for `CCCCc1nc2ccc(Cl)cc2c2nc(-c3ccc(F)cc3)nn12` [Example 74, 5-n-butyl-9-chloro-2-(4-fluorophenyl)-1,2,4-triazolo[1,5-c]quinazoline]: 147.5 to 150 °C; for `CCCCc1nc2ccc(Cl)cc2c2nc(-c3ccc(C)cc3)nn12` [Example 77, 5-n-butyl-9-chloro-2-(4-methylphenyl)-1,2,4-triazolo[1,5-c]quinazoline]: 141 to 143 °C; for `CCCc1nc2cc(Cl)ccc2c2nc(-c3ccccc3)nn12` [Example 79, 8-chloro-2-phenyl-5-n-propyl-1,2,4-triazolo[1,5-c]quinazoline]: 147 to 149 °C. For `CCCCc1nc2cc(Cl)ccc2c2nc(-c3ccc(F)cc3)nn12` [Example 80, 5-n-butyl-8-chloro-2-(4-fluorophenyl)-1,2,4-triazolo[1,5-c]quinazoline], the melting point was 185.5 to 186.5 °C. With `CCCCc1nc2cc(Cl)ccc2c2nc(-c3ccc(C)cc3)nn12` [Example 83, 5-n-butyl-8-chloro-2-(4-methylphenyl)-1,2,4-triazolo[1,5-c]quinazoline] the figure was 134 to 134.5 °C. Compound `CCCCc1nc2ccc([N+](=O)[O-])cc2c2nc(-c3ccccc3)nn12` [Example 85, 5-n-butyl-9-nitro-2-phenyl-1,2,4-triazolo[1,5-c]quinazoline] yielded a melting point of 205.5 to 206 °C.
